“Also recorded” adds a separate entry of the source. No end group written: not given here.

For series [1], the target named is ACE2 (Homo sapiens, UniProt Q9BYF1). To be noted: cited from earlier work.
In series [2] the target is S-protein RBD (Severe acute respiratory syndrome coronavirus 2, UniProt P0DTC2). As to the kind of experiment: LSPR assay, binding to S-protein RBD. To be noted: pH 7.4. More on the design: species or system SARS-CoV-2. On the procedure:
LSPR analysis. Localized Surface Plasmon Resonance (LSPR) analysis was conducted with OpenSPRTM instrument (Nicoyalife, Canada). The COOH sensor chip was firstly installed on the OpenSPRTM instrument in accordance with the standard procedure. Run the buffer at the maximum flow rate (150 μL/min) and exhaust the bubble after reaching the signal baseline. Slow down the flow rate of buffer solution (PBS, pH 7.4) to 20 µL/min, then load 200 µL EDC/NHS (20 μL /min, 4min) solution to activate COOH sensor chips. […] The injection port was rinsed with buffer solution and emptied with air. Fill with 200 µL blocking solution (20 µL/min, 4 min), wash the sample ring with buffer solution and empty it with air. Observe baseline for 5 min to ensure stability. Next, the selected peptides were diluted into a series of solutions with different concentration, which were then injected into the chip with the concentration from low to high. The kinetic parameters of the binding reactions were calculated and analyzed by using TraceDrawer software (Ridgeview Instruments AB, Sweden).

Series [3] concerns SARS-CoV-2 S-protein. Format: binding.
For series [4], the system named is SARS-CoV-2 Spike-pseudovirus. Conditions: in vivo.
Series [5] concerns SARS-CoV-2 Spike-pseudovirus. To be noted: in vivo. This is another data set of the same source.
In series [6] the test system is SARS-CoV-2 Spike-pseudovirus. Conditions: in vivo. This is another data set of the same source.
Series [7] concerns HEK293T/hACE2 cells.
For series [8] the following is noted: mouse, in vivo.

ACE2, sequence (Q9BYF1 18-805): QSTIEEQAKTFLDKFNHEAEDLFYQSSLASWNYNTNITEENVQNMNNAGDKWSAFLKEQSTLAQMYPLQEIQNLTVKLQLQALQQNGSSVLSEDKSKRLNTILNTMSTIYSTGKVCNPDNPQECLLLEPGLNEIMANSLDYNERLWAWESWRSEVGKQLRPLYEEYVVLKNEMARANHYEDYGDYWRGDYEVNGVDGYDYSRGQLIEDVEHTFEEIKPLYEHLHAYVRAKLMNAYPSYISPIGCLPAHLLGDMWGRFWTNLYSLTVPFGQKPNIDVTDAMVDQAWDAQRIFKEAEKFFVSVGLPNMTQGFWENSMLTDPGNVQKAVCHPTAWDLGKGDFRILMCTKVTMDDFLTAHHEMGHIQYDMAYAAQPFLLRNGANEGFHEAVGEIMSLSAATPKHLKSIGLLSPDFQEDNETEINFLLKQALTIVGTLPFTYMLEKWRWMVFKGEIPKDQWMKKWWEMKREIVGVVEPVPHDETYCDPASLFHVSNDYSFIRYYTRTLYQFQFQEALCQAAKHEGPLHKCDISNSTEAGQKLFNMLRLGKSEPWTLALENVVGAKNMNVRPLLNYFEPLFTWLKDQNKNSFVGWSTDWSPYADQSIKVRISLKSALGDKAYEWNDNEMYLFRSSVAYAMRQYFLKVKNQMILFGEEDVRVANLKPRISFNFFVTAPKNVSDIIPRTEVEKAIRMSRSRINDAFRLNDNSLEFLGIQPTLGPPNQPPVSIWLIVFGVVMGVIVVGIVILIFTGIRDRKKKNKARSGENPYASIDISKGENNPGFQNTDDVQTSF

Regarding `Cc1cc(O)c2c(c1)C(=O)c1cc(O)cc(O)c1C2=O` [emodin], in series [1], the ACE2 blocking result is on record as “identified to block ACE2”.
Regarding `COc1ccc2[nH]cc(CCNC(C)=O)c2c1` [melatonin], in series [1], the ACE2 blocking result is “identified to block ACE2”.
Consider `S=c1[nH]cnc2nc[nH]c12` [mercaptopurine], for which the ACE2 blocking entry in series [1] is given as “identified to block ACE2”.
On to `CN(C)CCOc1ccc(/C(=C(/CCCl)c2ccccc2)c2ccccc2)cc1` [toremifene], for which the ACE2 blocking result in series [1] was “identified to block ACE2”.
In series [2], KKKKKKDKFNHEAEDLFY [AYn1] registered a koff of 0.001 s⁻¹ and a kon of 10500 M⁻¹ s⁻¹. For the same compound, the “protein-peptide interaction in pull-down” value in series [3] is “no protein signal was detected in negative and blank control lanes”. The “pseudovirus infection / luciferin luminance” value in series [4] is given as “relatively weaker impact on pseudovirus infection; also recorded: ameliorated; also recorded: failed to prevent pseudovirus infection in vivo”. Further, the “pseudovirus content in lungs (119 bp S-protein band)” value in series [5] was “relative weak therapeutic effect”. In addition, the “luciferase IHC staining in lungs” value in series [6] is “significantly ameliorated”. Also, in series [7], the cytotoxicity entry is “no significant cytotoxicity” and the “cytotoxicity (general statement)” value is listed as “no cytotoxicity”. Besides, in series [8], the “distribution in livers and kidneys” value was “not in the kidneys and livers”; the “distribution in lungs and small intestine” value is “preferentially distributed in the lungs and intestine”.

Values taken from paper PMC8326117 (International Journal of Biological Sciences, 2021).
